# Experimental data taken from patent US7601716B2, “Pyridopyrazines and derivatives thereof as ALK and c-Met inhibitors” (Cephalon, Inc., priority 2006, dated 2009).
# Structures can show the parent of a compound that is named as a salt.
# What was measured:
# [1] = target: T1, c-Met (cytoplasmic domain) (Homo sapiens, UniProt P08581); test: c-Met Kinase Assay (ELISA/TRF, PLC-γ substrate); format: biochemical; details: 3 μM ATP (Km level); read-out: c-Met Kinase Inhibition (IC50)
# T1 construct: Reactions were initiated with 30 ng/mL c-Met (cytoplasmic domain, Invitrogen Corporation #PV3143); purchased Invitrogen Corporation PV3143
# Method in brief: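 c-Met cytoplasmic domain (30 ng/mL) phosphorylates plate-coated GST–PLC-γ for 15 min at 37 °C. Phosphotyrosine detected with Eu-labeled PT66 antibody by time-resolved fluorescence. IC50 from variable-slope sigmoidal fit of % inhibition vs log concentration.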
# [2] = target: baculovirus-expressed ALK (Homo sapiens, UniProt Q9UM73); test: ALK Kinase Assay (ELISA/TRF, PLC-γ substrate); format: biochemical; details: read-out: ALK Kinase Inhibition (IC50); note: 1 µM ATP (Km level)
# Method in brief: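 An ELISA adapted from a trkA format was used: wells carried GST-fused PLC-γ substrate, and enzyme addition (30 ng/ml ALK) started a 15-minute reaction at 37° C.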
# Chain of baculovirus-expressed ALK (Q9UM73 19-1620): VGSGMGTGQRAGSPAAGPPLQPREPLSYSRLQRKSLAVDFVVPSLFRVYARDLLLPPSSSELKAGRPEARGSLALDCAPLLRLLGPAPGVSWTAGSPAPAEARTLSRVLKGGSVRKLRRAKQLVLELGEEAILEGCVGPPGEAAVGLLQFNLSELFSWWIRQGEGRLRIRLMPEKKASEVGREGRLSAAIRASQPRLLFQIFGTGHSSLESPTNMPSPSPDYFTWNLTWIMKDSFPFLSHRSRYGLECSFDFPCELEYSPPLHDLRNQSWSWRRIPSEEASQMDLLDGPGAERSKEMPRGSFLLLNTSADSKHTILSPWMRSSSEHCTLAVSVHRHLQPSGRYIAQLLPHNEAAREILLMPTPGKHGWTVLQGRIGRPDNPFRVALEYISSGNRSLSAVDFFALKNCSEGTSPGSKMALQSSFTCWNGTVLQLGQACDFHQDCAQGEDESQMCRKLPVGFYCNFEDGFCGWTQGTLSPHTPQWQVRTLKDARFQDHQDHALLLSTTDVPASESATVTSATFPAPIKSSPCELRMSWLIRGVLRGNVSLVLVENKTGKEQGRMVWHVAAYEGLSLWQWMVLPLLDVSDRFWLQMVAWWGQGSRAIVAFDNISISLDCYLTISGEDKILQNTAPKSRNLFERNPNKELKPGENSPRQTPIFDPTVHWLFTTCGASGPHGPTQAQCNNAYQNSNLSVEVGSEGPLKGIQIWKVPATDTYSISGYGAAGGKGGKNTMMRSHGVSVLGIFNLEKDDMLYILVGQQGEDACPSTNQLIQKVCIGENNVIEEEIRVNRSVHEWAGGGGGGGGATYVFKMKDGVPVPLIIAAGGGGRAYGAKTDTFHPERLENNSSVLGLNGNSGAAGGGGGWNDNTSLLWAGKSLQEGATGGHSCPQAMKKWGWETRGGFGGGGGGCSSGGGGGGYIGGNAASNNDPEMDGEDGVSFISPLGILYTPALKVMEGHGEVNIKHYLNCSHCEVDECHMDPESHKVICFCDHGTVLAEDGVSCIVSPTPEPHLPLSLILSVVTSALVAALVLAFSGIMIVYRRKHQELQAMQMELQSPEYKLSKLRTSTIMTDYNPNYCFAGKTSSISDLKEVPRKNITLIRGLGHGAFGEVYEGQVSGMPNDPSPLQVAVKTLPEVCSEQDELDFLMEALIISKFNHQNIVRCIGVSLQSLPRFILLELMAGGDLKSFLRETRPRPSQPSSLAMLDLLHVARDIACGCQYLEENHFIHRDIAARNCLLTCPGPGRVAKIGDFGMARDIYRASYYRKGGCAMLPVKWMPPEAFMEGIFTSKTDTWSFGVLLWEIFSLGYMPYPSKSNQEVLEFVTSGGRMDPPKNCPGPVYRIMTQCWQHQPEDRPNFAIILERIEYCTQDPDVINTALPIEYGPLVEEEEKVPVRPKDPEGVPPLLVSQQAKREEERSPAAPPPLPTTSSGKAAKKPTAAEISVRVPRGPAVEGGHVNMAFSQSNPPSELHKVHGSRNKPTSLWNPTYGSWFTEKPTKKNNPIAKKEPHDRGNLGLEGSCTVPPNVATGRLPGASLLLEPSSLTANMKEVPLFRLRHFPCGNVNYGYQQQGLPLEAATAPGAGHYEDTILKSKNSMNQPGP
# T1 sequence (P08581 956-1390 limits assumed): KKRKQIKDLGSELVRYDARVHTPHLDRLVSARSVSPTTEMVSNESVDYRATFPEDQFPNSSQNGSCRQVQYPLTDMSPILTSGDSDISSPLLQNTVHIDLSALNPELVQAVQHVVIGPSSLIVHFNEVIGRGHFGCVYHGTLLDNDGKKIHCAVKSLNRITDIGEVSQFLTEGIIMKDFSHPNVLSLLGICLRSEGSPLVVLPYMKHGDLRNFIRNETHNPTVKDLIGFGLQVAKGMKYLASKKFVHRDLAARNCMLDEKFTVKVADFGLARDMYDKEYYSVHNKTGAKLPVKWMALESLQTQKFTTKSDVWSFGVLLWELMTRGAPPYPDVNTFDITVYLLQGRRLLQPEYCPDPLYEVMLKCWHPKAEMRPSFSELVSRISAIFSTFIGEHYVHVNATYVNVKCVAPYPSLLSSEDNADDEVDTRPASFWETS
Compound,IC50 [1] [µM],IC50 [2] [µM]
"O=C(c1cnc2c(c1)N(Cc1cc(Cl)ccc1Cl)CCN2)N1CCC(c2ccccc2)CC1 [Example 212, [1-(2,5-Dichlorobenzyl)-1,2,3,4-tetrahydropyrido[2,3-b]pyrazin-7-yl]-(4-phenylpiperidin-1-yl)methanone]",1 to 10,1 to 10
"CN1CCN(C(=O)c2ccc(-c3cnc4c(c3)N(Cc3c(F)ccc(F)c3Cl)C(=O)CN4)cc2)CC1 [Example 7, 1-(2-Chloro-3,6-difluorobenzyl)-7-[4-(4-methylpiperazine-1-carbonyl)phenyl]-3,4-dihydro-1H-pyrido[2,3-b]pyrazin-2-one]",10 to 100,1 to 10
"O=C(c1cnc2c(c1)N(Cc1cc(Cl)ccc1Cl)CCN2)N1CCC(n2c(=O)[nH]c3ccccc32)CC1 [Example 209, 1-{1-[1-(2,5-Dichlorobenzyl)-1,2,3,4-tetrahydropyrido[2,3-b]pyrazine-7-carbonyl]piperidin-4-yl}-1,3-dihydrobenzoimidazol-2-one]",10 to 100,1 to 10
"CN1CCN(C(=O)c2ccc(-c3cnc4c(c3)C(Oc3cc(Cl)cc(Cl)c3)CCN4)cc2)CC1 (stereo not shown) [Example 275, {4-[5-(3,5-Dichlorophenoxy)-5,6,7,8-tetrahydro-[1,8]naphthyridin-3-yl]phenyl}-(4-methylpiperazin-1-yl)methanone]",1 to 10,10 to 100
"CN(C)CCn1cc(-c2cnc3c(c2)N(Cc2c(F)ccc(F)c2Cl)CCN3)cn1 [Example 197, (2-{4-[1-(2-Chloro-3,6-difluorobenzyl)-1,2,3,4-tetrahydropyrido[2,3-b]pyrazin-7-yl]-pyrazol-1-yl}ethyl)dimethylamine]",1 to 10,0.1 to 1
"O=C(c1ccc(-c2cnc3c(c2)N(C(=O)Cc2cc(F)ccc2F)CCN3)cc1)N1CCC(N2CCCC2)CC1 [Example 114, 2-(2,5-Difluorophenyl)-1-{7-[4-(4-(pyrrolidin-1-yl)piperidine-1-carbonyl)phenyl]-3,4-dihydro-2H-pyrido[2,3-b]pyrazin-1-yl}ethanone]",10 to 100,1 to 10
"O=C(c1cnc2c(c1)N(Cc1cc(Cl)ccc1Cl)CCN2)N1CCN(c2cccc(C(F)(F)F)c2)CC1 [Example 211, [1-(2,5-Dichlorobenzyl)-1,2,3,4-tetrahydropyrido[2,3-b]pyrazin-7-yl]-{4-[3-(trifluoromethyl)phenyl]piperazin-1-yl}methanone]",10 to 100,10 to 100
"O=C(NCc1cccc2ccccc12)c1cnc2c(c1)N(Cc1cc(Cl)ccc1Cl)CCN2 [Example 244, 1-(2,5-Dichlorobenzyl)-1,2,3,4-tetrahydropyrido[2,3-b]pyrazine-7-carboxylic acid (naphthalen-1-yl-methyl)amide]",> 100,1 to 10
"CN1CCN(c2ccc(-c3cnc4c(c3)N(Cc3cc(Cl)ccc3Cl)CCN4C)cn2)CC1 [Example 188, 1-(2,5-Dichlorobenzyl)-4-methyl-7-[6-(4-methylpiperazin-1-yl)pyridin-3-yl]-1,2,3,4-tetrahydropyrido[2,3-b]pyrazine]",> 100,1 to 10
"CC(=O)N1CCN(C(=O)c2cnc3c(c2)N(Cc2cc(Cl)ccc2Cl)CCN3)CC1 [Example 227, 1-{4-[1-(2,5-Dichlorobenzyl)-1,2,3,4-tetrahydropyrido[2,3-b]pyrazine-7-carbonyl]piperazin-1-yl}ethanone]",10 to 100,10 to 100
"c1ccc(CN2CCNc3ncccc32)cc1 [Example 32, 1-Benzyl-1,2,3,4-tetrahydropyrido[2,3-b]pyrazine]",> 100,> 100
"CN1CCN(c2ccc(-c3cnc4c(c3)C(Oc3c(F)ccc(F)c3Cl)CCN4)cn2)CC1 (stereo not shown) [Example 273, 4-(2-Chloro-3,6-difluorophenoxy)-6-[6-(4-methylpiperazin-1-yl)pyridin-3-yl]-1,2,3,4-tetrahydro-[1,8]naphthyridine]",10 to 100,10 to 100
"O=C(NCCN1CCCC1)c1ccc(-c2cnc3c(c2)N(Cc2ccccc2)C(=O)CN3)cc1 [Example 12, 4-(1-Benzyl-2-oxo-1,2,3,4-tetrahydropyrido[2,3-b]pyrazin-7-yl)-N-(2-pyrrolidin-1-yl-ethyl)benzamide, trifluoroacetic acid salt]",10 to 100,1 to 10
"O=C(c1cnc2c(c1)N(Cc1cc(Cl)ccc1Cl)CCN2)N1CCN(c2ccccc2)CC1 [Example 206, [1-(2,5-Dichlorobenzyl)-1,2,3,4-tetrahydropyrido[2,3-b]pyrazin-7-yl]-(4-phenylpiperazin-1-yl)-methanone]",> 100,10 to 100
"O=C1CNc2ncc(-c3ccc(C(=O)N4CCC[C@H]4CN4CCCC4)cc3)cc2N1Cc1ccccc1 [Example 13, S-1-Benzyl-7-[4-(2-[(pyrrolidin-1-yl)methyl]pyrrolidine-1-carbonyl)phenyl]-3,4-dihydro-1H-pyrido[2,3-b]pyrazin-2-one, trifluoroacetic acid salt]",> 100,10 to 100
"CC(c1cc(F)c(F)cc1F)N1C(=O)CNc2ncc(I)cc21 (stereo not shown) [Example 145, 7-Iodo-1-[1-(2,4,5-trifluorophenyl)ethyl]-3,4-dihydro-1H-pyrido[2,3-b]pyrazin-2-one]",> 100,> 100
"O=C(c1ccccc1)N1CCN(C(=O)c2cnc3c(c2)N(Cc2cc(Cl)ccc2Cl)CCN3)CC1 [Example 219, (4-Benzoylpiperazin-1-yl)-[1-(2,5-dichlorobenzyl)-1,2,3,4-tetrahydropyrido[2,3-b]pyrazin-7-yl]methanone]",10 to 100,1 to 10
"CN1CCN(c2cc(-c3cnc4c(c3)C(Oc3cccc(Cl)c3)CCN4)ccn2)CC1 (stereo not shown) [Example 278, 4-(3-Chlorophenoxy)-6-[2-(4-methylpiperazin-1-yl)pyridin-4-yl]-1,2,3,4-tetrahydro-[1,8]naphthyridine]",1 to 10,1 to 10
"CN1CCN(C(=O)c2ccc(-c3cnc4c(c3)N(C(=O)c3ccccc3)CCN4)cc2)CC1 [Example 54, {7-[4-(4-Methylpiperazine-1-carbonyl)phenyl]-3,4-dihydro-2H-pyrido[2,3-b]pyrazin-1-yl}phenylmethanone]",10 to 100,> 100
"O=C(c1cnc2c(c1)N(Cc1cc(Cl)ccc1Cl)CCN2)N1CCN(c2ccccc2C(F)(F)F)CC1 [Example 257, [1-(2,5-Dichlorobenzyl)-1,2,3,4-tetrahydropyrido[2,3-b]pyrazin-7-yl]-[4-(2-(trifluoromethyl)phenyl)piperazin-1-yl]methanone]",> 100,10 to 100
"CC(c1cc(F)c(F)cc1F)N1CCNc2ncc(-c3ccc(C(=O)N4CCC[C@H]4CN4CCCC4)cc3)cc21 (stereo partly drawn) [Example 148, S-{2-[(pyrrolidin-1-yl)methyl]pyrrolidin-1-yl}-(4-{1-[1-(2,4,5-trifluorophenyl)ethyl]-1,2,3,4-tetrahydropyrido[2,3-b]pyrazin-7-yl}phenyl)methanone, trifluoroacetic acid salt]",10 to 100,0.1 to 1
"O=C(NCC1CCCO1)c1cnc2c(c1)N(Cc1cc(Cl)ccc1Cl)CCN2 (stereo not shown) [Example 254, 1-(2,5-Dichlorobenzyl)-1,2,3,4-tetrahydropyrido[2,3-b]pyrazine-7-carboxylic acid (tetrahydrofuran-2-yl-methyl)amide]",> 100,1 to 10
"O=C(c1cnc2c(c1)N(Cc1cc(Cl)ccc1Cl)CCN2)N1CCN(Cc2ccc(Cl)cc2)CC1 [Example 255, [4-(4-Chlorobenzyl)piperazin-1-yl]-[1-(2,5-dichlorobenzyl)-1,2,3,4-tetrahydropyrido[2,3-b]pyrazin-7-yl]methanone]",> 100,1 to 10
"O=C(c1cnc2c(c1)N(Cc1cc(Cl)ccc1Cl)CCN2)N1CCN(c2cccc(Cl)c2)CC1 [Example 222, [4-(3-Chlorophenyl)piperazin-1-yl]-[1-(2,5-dichlorobenzyl)-1,2,3,4-tetrahydropyrido[2,3-b]pyrazin-7-yl]methanone]",10 to 100,10 to 100
"O=C(c1ccc(-c2cnc3c(c2)N(Cc2cc(F)c(F)cc2F)CCN3)cc1)N1CCC[C@H]1CN1CCCC1 [Example 84, ((S)-2-((pyrrolidin-1-yl)methyl)pyrrolidin-1-yl)-{4-[1-(2,4,5-trifluorobenzyl)-1,2,3,4-tetrahydropyrido[2,3-b]pyrazin-7-yl]phenyl}-methanone]",1 to 10,0.1 to 1
"O=C(c1ccc(-c2cnc3c(c2)N(C(=O)Cc2ccccc2)CCN3)cc1)N1CCC(N2CCCC2)CC1 [Example 111, 2-Phenyl-1-{7-[4-(4-(pyrrolidin-1-yl)piperidine-1-carbonyl)phenyl]-3,4-dihydro-2H-pyrido[2,3-b]pyrazin-1-yl}-ethanone]",10 to 100,> 100
"COc1ccc(CN2CCN(C(=O)c3cnc4c(c3)N(Cc3cc(Cl)ccc3Cl)CCN4)CC2)cc1 [Example 218, [1-(2,5-Dichlorobenzyl)-1,2,3,4-tetrahydropyrido[2,3-b]pyrazin-7-yl]-[4-(4-methoxybenzyl)piperazin-1-yl]methanone]",10 to 100,10 to 100
"O=C(c1cnc2c(c1)N(Cc1cc(Cl)ccc1Cl)CCN2)N1CCN(C(=O)C2CCCO2)CC1 (stereo not shown) [Example 252, [1-(2,5-Dichlorobenzyl)-1,2,3,4-tetrahydropyrido[2,3-b]pyrazin-7-yl]-[4-(tetrahydrofuran-2-carbonyl)piperazin-1-yl]methanone]",> 100,10 to 100
"CC(c1cc(F)c(F)cc1F)N1CCNc2ncc(I)cc21 (stereo not shown) [Example 147, 7-Iodo-1-[1-(2,4,5-trifluorophenyl)ethyl]-1,2,3,4-tetrahydropyrido[2,3-b]pyrazine]",> 100,10 to 100
